The values below come from patent US20230129095A1, “PEPTIDE INHIBITORS OF INTERLEUKIN-23 RECEPTOR AND THEIR USE TO TREAT INFLAMMATORY DISEASES” (Protagonist Therapeutics, Inc., priority 2020, published 2023).

Holding throughout (assay type): in vitro ADME
Data set [1] is described as follows: Stability in human fecal homogenate (anaerobic). The conditions noted are these: pH 6.8, 20% human fecal homogenate, 37° C., up to 24 hours, read-out: t1/2: Human Feces anaerobic. The method, then: (§1) Studies were carried out in human or cynomolgus monkey fecal homogenate to evaluate gastrointestinal stability of the peptide inhibitors of the present invention.
(§2) Fecal homogenate ([…]) was prepared by adding 4 mL of growth medium (1 liter contains 2 g peptone water powder, 2 g yeast extract, 0.1 g NaCl, 0.04 g KH2PO4, 0.01 g CaCl2.6H2O, 0.01 g MgSO4.7H2O, 2 mL Tween 80, 0.5 g bile salts, 0.5 g L-cysteine HCl, 2 g NaHCO3, and 10 μL Vitamin K, pH adjusted to 6.8, and sterilized by filtration through a 0.22 μm filter) to every gram of feces (pooled freshly collected human or cynomolgus monkey feces). The suspension was vortexed to break up large clumps, and homogenized using a bead mill homogenizer. Centrifuged the homogenate at 2800×g for 15 min. The supernatant is taken out and used for incubations. DMSO stocks (10 mM) were first prepared for the test compounds. Incubations were performed in an anaerobic chamber conditioned at 37° C. Aliquots of the DMSO solutions were dosed into 1.0 mL aliquots of 20% fecal homogenate, which are pre-warmed to 37° C. The final test compound concentration was 20 μM. At each timepoint (0, 20 min, 1, 3, 6, or 24 hours), 100 μL aliquot of each incubation mixture is taken out and added to separate tubes containing 300 μL of 50% acetonitrile/50% methanol and an internal standard to terminate the reaction. Samples were taken out of the anaerobic chamber and stored at 4° C. until the end of the experiment. After the final timepoint is sampled, the tubes were mixed and then centrifuged at 3,000 rpm for 10 minutes. Aliquots of the supernatant were removed, diluted 1:1 into distilled water containing 0.1% formic acid, and analyzed by LC/MS/MS. Percent remaining at each timepoint was calculated based on the peak area response ratio of test to compound to internal standard. Time 0 was set to 100%, and all later timepoints were calculated relative to time 0. Half-lives were calculated by fitting to a first-order exponential decay equation using Graphpad or Excel.

The next data set can be described thus: Stability in rat plasma. Conditions: both sexes, SD rat plasma, EDTA, 37° C., up to 24 hours, read-out: t1/2: Rat Plasma EDTA. The method, then:
Peptides of interest (20 μM) were incubated with pre-warmed rat plasma (SD rat, mixed gender pooled, EDTA, filtered through 0.22 μm, BioreclamationIVT) at 37° C. Aliquots were taken at various time points up to 24 hours (e.g. 0, 0.25, 1, 3, 6 and 24 hr), and immediately quenched with 4 volumes of organic solvent (acetonitrile/methanol (1:1) and 0.1% formic acid, containing 1 μM internal standard). Quenched samples were stored at 4° C. until the end of the experiment and centrifuged at 4,000 rpm for 10 minutes. The supernatant were diluted 1:1 with deionized water and analyzed using LC-MS. Percentage remaining at each time point was calculated based on the peak area ratio (analyte over internal standard) relative to the initial level at time zero. Half-lives were calculated by fitting to a first-order exponential decay equation using GraphPad.

The nature of data set [2]: Stability in simulated intestinal fluid (SIF). Conditions: 37° C.; for SIF t1/2: 100 fold dilution of standard SIF concentration, 20 μM; for half-life at 20 μM: pH 6.8, 100 fold dilution of standard SIF concentration, read-out: SIF t1/2 (converted). The method, then:
Studies were carried out in simulated intestinal fluid (SIF) and simulated gastric fluid (SGF) to evaluate gastric stability of the peptide inhibitors of the present invention. In addition, studies were carried out to assess redox stability of the peptide inhibitors of the present invention.
SIF was prepared by adding 6.8 g of monobasic potassium phosphate and 10.0 g of pancreatin to 1.0 L of water. After dissolution, the pH was adjusted to 6.8 using NaOH. DMSO stocks (2 mM) were first prepared for the test compounds. Aliquots of the DMSO solutions were dosed into 6 individual tubes, each containing 0.5 mL of SIF, which is pre-warmed to 37° C. The final test compound concentration was 20 μM. The vials were kept in a benchtop Thermomixer® for the duration of the experiment. At each timepoint (0, 5, 10, 20, 40, 60, or 360 minutes or 24 hours), 1.0 mL of acetonitrile containing 1% formic acid was added to one vial to terminate the reaction. Samples were stored at 4° C. until the end of the experiment. After the final timepoint is sampled, the tubes were mixed and then centrifuged at 3,000 rpm for 10 minutes. Aliquots of the supernatant were removed, diluted 1:1 into distilled water containing internal standard, and analyzed by LCMS/MS. Percent remaining at each timepoint was calculated based on the peak area response ratio of test to compound to internal standard. Time 0 was set to 100%, and all later timepoints were calculated relative to time 0. Half-lives were calculated by fitting to a first-order exponential decay equation using Graphpad.

A short description of data set [3]: Stability in cynomolgus monkey fecal homogenate (anaerobic). Conditions: pH 6.8, 20% cynomolgus monkey fecal homogenate, 37° C., up to 24 hours, read-out: t1/2: Monkey Feces anaerobic (converted). The method, then:
as §1, §2

[4] abbreviates: 20% fecal homogenate (supernatant).

*1 amine or outer side, *2 acyl side, *3 side chain or, on linkers, in order; H or OH if unused. Where a SMILES comes first, the peptide text is derived from it. Bridges are numbered along the chain shown (N, C = ends). [ ]: non-standard residue; d: D form. X5 = CC(C)c1cccc(-c2cccc3c(C[C@H](N[*:1])C(=O)[*:2])c[nH]c23)c1; X7 = O=C([C@H](Cc1c[nH]c2cc(-c3ccccc3)ccc12)N[*:1])[*:2]; Trp(7-Ph) = N[C@@H](Cc1c[nH]c2c(-c3ccccc3)cccc12)C(=O)O; X4 = O=C([C@H](Cc1c[nH]c2c(-c3ccsc3)cccc12)N[*:1])[*:2]; Abu(4-yl) = O=C([C@H](CC[*:3])N[*:1])[*:2]; 2Nal = N[C@@H](Cc1ccc2ccccc2c1)C(=O)O; AEF = NCCOc1ccc(C[C@H](N)C(=O)O)cc1; Pen = CC(C)(S)[C@H](N)C(=O)O; αMeK = C[C@](N)(CCCCN)C(=O)O

`CC(=O)NCCCC[C@H](NC(=O)[C@](C)(CCCCN)NC(=O)[C@H](Cc1ccc2ccccc2c1)NC(=O)[C@H](Cc1ccc(OCCN)cc1)NC(=O)[C@H]1NC(=O)[C@H](CCC(N)=O)NC(=O)[C@H](Cc2c[nH]c3c(-c4ccsc4)cccc23)NC(=O)[C@H]([C@@H](C)O)NC(=O)[C@H](CC(N)=O)NC(=O)[C@@H](NC(C)=O)C(C)(C)SSC1(C)C)C(=O)N[C@@H](CC(N)=O)C(=O)N[C@H](CCCCN)C(N)=O` [Peptide 2] (Ac-[Pen]NT[X4]Q[Pen][AEF][2Nal][αMeK]K(Ac)N[dK]-NH2; disulfide 1-6): the half-life at 20 μM (in data set [1] (setting [4]); in the data set “Stability in rat plasma”; in data set [3] (setting [4])) was > 24 h throughout. Also, in data set [2], the “SIF t1/2” value was 24 h.

For the compound `CC(=O)NCCCC[C@@H]1NC(=O)[C@H](Cc2c[nH]c3c(-c4ccccc4)cccc23)NC(=O)[C@H]([C@@H](C)O)NC(=O)[C@H](CCC(N)=O)NC(=O)[C@@H](NC(=O)[C@@H](CCCNC(=N)N)NC(C)=O)CCSC[C@@H](C(=O)N[C@@H](Cc2ccc(OCCN)cc2)C(=O)N[C@@H](Cc2ccc3ccccc3c2)C(=O)N[C@@](C)(CCCCN)C(=O)N[C@@H](CCCCNC(C)=O)C(=O)N[C@@H](CC(N)=O)C(=O)N[C@H](CC(C)C)C(N)=O)NC1=O` [Peptide 3, Ac-[(D)Arg]-Abu-Q-T-[W(7-Ph)]-[Lys(Ac)]-[Cys]-Phe[4-(2-aminoethoxy)]-[2-Nal]-[a-MeLys]-[Lys(Ac)]-N-[(D)Leu]-NH2] (Ac-[dR][Abu(4-yl)]QT[Trp(7-Ph)]K(Ac)C[AEF][2Nal][αMeK]K(Ac)N[dL]-NH2; thioether 2-7), the half-life at 20 μM (in data set [1]; in “Stability in rat plasma” (pooled); in data set [3]) was > 24 h in each case. The “SIF t1/2” value in data set [2] is 24 h.

As to `CC(=O)NCCCC[C@@H]1NC(=O)[C@H](Cc2c[nH]c3c(-c4cccc(C(C)C)c4)cccc23)NC(=O)[C@H]([C@@H](C)O)NC(=O)[C@H](CC(N)=O)NC(=O)[C@@H](NC(C)=O)C(C)(C)SSC(C)(C)[C@@H](C(=O)N[C@@H](Cc2ccc(OCCN)cc2)C(=O)N[C@@H](Cc2ccc3ccccc3c2)C(=O)N[C@@](C)(CCCCN)C(=O)N[C@@H](CCCCNC(C)=O)C(=O)N[C@@H](CC(N)=O)C(=O)N[C@H](CCCCN)C(N)=O)NC1=O` [Peptide 11, Ac-[Pen]-N-T-[W(7-(3-iPrPh))]-[Lys(Ac)]-[Pen]-Phe[4-(2-aminoethoxy)]-[2-Nal]-[a-MeLys]-[Lys(Ac)]-N-[(D)Lys)]-NH2] (Ac-[Pen]NT[X5]K(Ac)[Pen][AEF][2Nal][αMeK]K(Ac)N[dK]-NH2; disulfide 1-6), the half-life at 20 μM (in data set [1]; in “Stability in rat plasma” (pooled); in data set [3]) was > 24 h each time. The “SIF t1/2” value in data set [2] was 24 h.

In the case of `CC(=O)NCCCC[C@@H]1NC(=O)[C@H](Cc2c[nH]c3c(-c4ccccc4)cccc23)NC(=O)[C@H]([C@@H](C)O)NC(=O)[C@H](CCC(N)=O)NC(=O)[C@@H](NC(C)=O)CCSC[C@@H](C(=O)N[C@@H](Cc2ccc(OCCN)cc2)C(=O)N[C@@H](Cc2ccc3ccccc3c2)C(=O)N[C@@](C)(CCCCN)C(=O)N[C@@H](CCCCNC(C)=O)C(=O)N[C@@H](CC(N)=O)C(=O)N[C@H](CCCCN)C(N)=O)NC1=O` [Peptide 19, Ac-[Abu]-Q-T-[W(7-Ph)]-[Lys(Ac)]-[Cys]-Phe[4-(2-aminoethoxy)]-[2-Nal]-[a-MeLys]-[Lys(Ac)]-N-[(D)Lys]-NH2] (Ac-[Abu(4-yl)]QT[Trp(7-Ph)]K(Ac)C[AEF][2Nal][αMeK]K(Ac)N[dK]-NH2; thioether 1-6), the half-life at 20 μM in data set [1] is > 24 h; in the data set “Stability in rat plasma” (pooled) it was > 24 h; in data set [2], 17.8 h; in data set [3] it was 21.8 h.

On to `CC(=O)NCCCC[C@@H]1NC(=O)[C@H](Cc2c[nH]c3cc(-c4ccccc4)ccc23)NC(=O)[C@H]([C@@H](C)O)NC(=O)[C@H](CC(N)=O)NC(=O)[C@@H](NC(C)=O)C(C)(C)SSC(C)(C)[C@@H](C(=O)N[C@@H](Cc2ccc(OCCN)cc2)C(=O)N[C@@H](Cc2ccc3ccccc3c2)C(=O)N[C@@](C)(CCCCN)C(=O)N[C@@H](CCCCNC(C)=O)C(=O)N[C@@H](CC(N)=O)C(=O)N[C@H](CCCCN)C(N)=O)NC1=O` [Peptide 6, Ac-[Pen]-N-T-[W(6-Ph)]-[Lys(Ac)]-[Pen]-Phe[4-(2-aminoethoxy)]-[2-Nal]-[a-MeLys]-[Lys(Ac)]-N-[(D)Lys)]-NH2] (Ac-[Pen]NT[X7]K(Ac)[Pen][AEF][2Nal][αMeK]K(Ac)N[dK]-NH2; disulfide 1-6), for which the half-life at 20 μM (in data set [1]; in the data set “Stability in rat plasma” (pooled); in data set [3]) was > 24 h in each case. Moreover, the “SIF t1/2” value in data set [2] was 24 h.

In the case of `CC(=O)NCCCC[C@@H]1NC(=O)[C@H](Cc2c[nH]c3c(-c4ccccc4)cccc23)NC(=O)[C@H]([C@@H](C)O)NC(=O)[C@H](CCC(N)=O)NC(=O)[C@@H](NC(=O)[C@@H](CCCNC(=N)N)NC(C)=O)CCSC[C@@H](C(=O)N[C@@H](Cc2ccc(OCCN)cc2)C(=O)N[C@@H](Cc2ccc3ccccc3c2)C(=O)N[C@@](C)(CCCCN)C(=O)N[C@@H](CCCCNC(C)=O)C(=O)N[C@@H](CC(N)=O)C(N)=O)NC1=O` [Peptide 4, Ac-[(D)Arg]-[Abu]-Q-T-[W(7-Ph)]-[Lys(Ac)]-[Cys]-Phe[4-(2-aminoethoxy)]-[2-Nal]-[a-MeLys]-[Lys(Ac)]-NNH2] (Ac-[dR][Abu(4-yl)]QT[Trp(7-Ph)]K(Ac)C[AEF][2Nal][αMeK]K(Ac)N-NH2; thioether 2-7), the half-life at 20 μM in data set [1] was > 24 h; in the data set “Stability in rat plasma” (pooled) it was > 24 h; in data set [2], 5.1 h; in data set [3], 14.1 h.

Turning to `CC(=O)NCCCC[C@@H]1NC(=O)[C@H](Cc2c[nH]c3c(-c4ccccc4)cccc23)NC(=O)[C@H]([C@@H](C)O)NC(=O)[C@H](CCC(N)=O)NC(=O)[C@@H](NC(=O)[C@@H](CCCNC(=N)N)NC(C)=O)CCSC[C@@H](C(=O)N[C@@H](Cc2ccc(OCCN)cc2)C(=O)N[C@@H](Cc2ccc3ccccc3c2)C(=O)N[C@@](C)(CCCCN)C(=O)N[C@@H](CCCCNC(C)=O)C(=O)N[C@@H](CC(N)=O)C(=O)N[C@H](CCCCN)C(N)=O)NC1=O` [Peptide 5, Ac-[(D)Arg]-[Abu]-Q-T-[W(7-Ph)]-[Lys(Ac)]-[Cys]-Phe[4-(2-aminoethoxy)]-[2-Nal]-[a-MeLys]-[Lys(Ac)]-N-[(D)Lys)]-NH2] (Ac-[dR][Abu(4-yl)]QT[Trp(7-Ph)]K(Ac)C[AEF][2Nal][αMeK]K(Ac)N[dK]-NH2; thioether 2-7), the half-life at 20 μM in data set [1] was > 24 h; in the data set “Stability in rat plasma” (pooled), > 24 h; in data set [2], 6 h; in data set [3] it was > 24 h.
